For one series, the system named is suspended biomass. Conditions: constant includes sorption, desorption and biodegradation; cited from earlier work.
For another series, the system named is fixed biomass. As to conditions: constant includes sorption, desorption and biodegradation; cited from earlier work.
A short description of series [1]: Purification efficiency of biologically activated carbon (BAC) columns C1 to C5. Conditions: for average degradation: detailed analysis on 16 molecules, over column conditions; for effect of EBCT on degradation: longer EBCTs (e.g. 19 minutes). From the text: The activated carbon used was in GAC form, for example of the Norit 830W type (Cabot). According to the invention, however, several types of activated carbon may be used, by varying the nature of the carbon, the specific surface developed and the type of pores.
According to one embodiment, the GAC was conditioned for 2 months with the wastewater effluents coming from the MB-MBR before being placed in an acrylic glass column. Operation was monitored for approximately 5 months. The purpose of conditioning is to reduce the time before the breakthrough point of the filter, i.e. the moment when the adsorption capacity is exhausted and biodegradation is the dominant process.
The biological purification performance of micropollutants was evaluated according to the following methodology: • 1. Saturation of adsorption sites and verification by measuring the reduction in dissolved organic carbon; • 2. Evaluation of bacterial activity via measurements of oxygen consumption; • 3. Correlation analyzes between bacterial activity and micropollutant removal.
Based on the operational parameters selected for columns C1 to C5, the purification efficiencies of 12 of the 13 molecules indicative of the efficiency of the method are presented in FIG. 8.

Where only a bound is given, the exact number is not on record here.

On to `NC(=O)N1c2ccccc2C=Cc2ccccc21` [Carbamazepine], for which the “Kbio, Biomass suspended” value in the series with suspended biomass was ≤0.1 l/g biomass · day. In addition, in the series on fixed biomass, the “Kbio, Biomass Fixed” value is on record as ≤0.1 l/g biomass · day.
For `CC(=O)Nc1ccc(S(=O)(=O)Nc2cc(C)on2)cc1` [N-acetylsulfamethoxazole], the “Kbio, Biomass suspended” value in the series with suspended biomass was 1.1-1.4 l/g biomass · day. Besides, in the series with fixed biomass, the “Kbio, Biomass Fixed” value is 0.7-1.6 l/g biomass · day.
On to `CC[C@H]1OC(=O)[C@H](C)[C@@H](O[C@H]2C[C@@](C)(OC)[C@@H](O)[C@H](C)O2)[C@H](C)[C@@H](O[C@@H]2O[C@H](C)C[C@H](N(C)C)[C@H]2O)[C@](C)(OC)C[C@@H](C)C(=O)[C@H](C)[C@@H](O)[C@]1(C)O` [Clarithromycin], for which, in series [1], the average degradation entry is “around 50%” and the “effect of EBCT on degradation” value is recorded as “better degraded with longer EBCTs”. Also, the “Kbio, Biomass suspended” value in the series on suspended biomass is given as 0.18-0.29 l/g biomass · day. Moreover, in the series on fixed biomass, the “Kbio, Biomass Fixed” value is ≤0.2 l/g biomass · day.
Regarding `O=P1(N(CCCl)CCCl)NCCCO1` (stereo not shown) [cyclophosphamide], in series [1], the average degradation result was “around 50%” and the “effect of EBCT on degradation” value was “better degraded with longer EBCTs”.
Take `CC(C)NCC(O)COc1ccc(CC(N)=O)cc1` (stereo not shown) [Atenolol]: the “Kbio, Biomass suspended” value in the series with suspended biomass was 0.67-0.9 l/g biomass · day. Moreover, the “Kbio, Biomass Fixed” value with fixed biomass is listed as 0.53-0.67 l/g biomass · day.
Take `O=C(O)Cc1ccccc1Nc1c(Cl)cccc1Cl` [Diclofenac]: in series [1], the average degradation entry was “around 50%” and the “effect of EBCT on degradation” value is on record as “better degraded with longer EBCTs”. Moreover, the “Kbio, Biomass suspended” value in the series with suspended biomass was ≤0.1 l/g biomass · day. The “Kbio, Biomass Fixed” value in the series on fixed biomass is given as 1.3-1.7 l/g biomass · day.

The values are drawn from patent US11845681B2, “Process and plant for treating wastewater containing micropollutants of pharmaceutical origin” (Cockerill Maintenance & Ingenierie S.A., priority 2018, dated 2023).
